Measurements reported in patent publication US6316436A, “Inhibitors of prenyl-protein transferase” (Merck & Co., Inc., priority 1999, dated 2001).

Biological target: T1, human FPTase (Homo sapiens, UniProt P49354+P49356)
T1 construct: made in house
Assay: In vitro inhibition of Ras farnesyl transferase (FPTase inhibition assay)
Assay type: biochemical
Settings: 30° C.; 650 nM Ras-CVLS, 100 nM farnesyl diphosphate; recombinant FPTase; read-out: IC50 for inhibitory activity against human FPTase
Description: In Vitro Inhibition of Ras Farnesyl Transferase
Isoprenyl-protein transferase activity assays are carried out at 30° C. unless noted otherwise. A typical reaction contains (in a final volume of 50 μL): [^3 H]farnesyl diphosphate, Ras protein, 50 mM HEPES, pH 7.5, 5 mM MgCl2, 5 mM dithiothreitol, 10 μM ZnCl2, 0.1% polyethyleneglycol (PEG) (15,000-20,000 mw) and isoprenyl-protein transferase. The FPTase employed in the assay is prepared by recombinant expression as described in Omer, C. A., Kral, A. M., Diehl, R. E., Prendergast, G. C., Powers, S., Allen, C. M., Gibbs, J. B. and Kohl, N. E. (1993) Biochemistry 32:5167-5176. After thermally pre-equilibrating the assay mixture in the absence of enzyme, reactions are initiated by the addition of isoprenyl-protein transferase and stopped at timed intervals (typically 15 min) by the addition of 1 M HCl in ethanol (1 mL). The quenched reactions are allowed to stand for 15 m (to complete the precipitation process). After adding 2 mL of 100% ethanol, the reactions are vacuum-filtered through Whatman GF/C filters. Filters are washed four times with 2 mL aliquots of 100% ethanol, mixed with scintillation fluid (10 mL) and then counted in a Beckman LS3801 scintillation counter. […]

IC50: ≤ 10 µM
SMILES: CCC12CCCCN(C1)C(=O)CCc1cncn1Cc1ccc(C#N)c(c1)Oc1cccc2c1 (racemic) [Example 1, (±) 5H-17-Ethyl-17,22-methano-18,19,20,21,23,24-hexahydro-23-oxo-6,10: 12,16-dimetheno-25H-imidazo[3,4-h]-[1,11,16]oxadiazacyclodocosane-9-carbonitrile]
